For the experiment, the target named is T1, Rhodopsin kinase GRK7 (Homo sapiens, UniProt Q8WTQ7).
T1 sequence (Q8WTQ7 whole entry): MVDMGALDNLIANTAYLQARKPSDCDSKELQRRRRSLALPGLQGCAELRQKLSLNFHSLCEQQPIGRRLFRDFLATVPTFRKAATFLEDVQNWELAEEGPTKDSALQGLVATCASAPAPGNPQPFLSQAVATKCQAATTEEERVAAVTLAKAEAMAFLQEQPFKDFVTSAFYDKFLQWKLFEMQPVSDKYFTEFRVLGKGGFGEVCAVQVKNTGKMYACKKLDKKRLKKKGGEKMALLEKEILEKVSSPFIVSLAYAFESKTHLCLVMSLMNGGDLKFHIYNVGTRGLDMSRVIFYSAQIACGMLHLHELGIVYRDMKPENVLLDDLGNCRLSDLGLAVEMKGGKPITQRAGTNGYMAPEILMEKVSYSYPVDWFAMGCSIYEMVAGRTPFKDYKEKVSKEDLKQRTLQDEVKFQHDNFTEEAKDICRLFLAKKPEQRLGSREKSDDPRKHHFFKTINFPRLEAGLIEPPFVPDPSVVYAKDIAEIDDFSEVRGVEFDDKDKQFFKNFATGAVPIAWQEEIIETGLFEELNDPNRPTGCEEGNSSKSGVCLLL
The experiment can be described thus: Inhibition of GRK7-mediated bovine tubulin phosphorylation by scintillation counting.

Each structure is given as a SMILES string.

For orientation: IC50 means the point on the concentration scale where inhibition reaches its midpoint. Low values mean greater potency in that assay, high ones weaker potency in that assay. `O=C(N[C@@H]1CNCCC[C@H]1OC(=O)c1cc(O)c(C(=O)c2c(O)cccc2C(=O)O)c(O)c1)c1ccc(O)cc1` [BALANOL] came in with an IC50 of 180 nM.

The values above are taken from ChEMBL document CHEMBL1154923 (J Med Chem, 2010).
